Target: T1, myc-TEAD1:GFP-YAP complexes (Homo sapiens, UniProt P28347)
T1 construct: #17843 (GFP-YAP1); host or cells: HeLa
Assay: Co-immunoprecipitation of myc-TEAD1 and GFP-YAP
Type: binding
Conditions: 200 μM CPD3
Procedure: Figure 1 BUDE screening-identified compound 3 for TEAD inhibition. (A) HeLa cells were stably transduced with a lentiviral viral vector containing 8×TEAD-secreted nanoluciferase reporter gene (TEAD-NLUC). Cells were transfected with non-targeting siRNA (siNEG), siRNA targeting YAP (siYAP), control adenoviral vector or an adenovirus expression constitutively active YAPS127A (Ad:YAP). Culture media were conditioned for 6 h and assayed for secreted nanoluciferase activity (n = 3). (B) HeLa cells stably transduced with TEAD-NLUC were treated with 100 μM of indicated compound for 6 h. Cell conditioned media were assayed for nanoluciferase activity (n = 3). […] (D) Recombinant GST-TEAD1 protein bound to glutathione resin was incubated with 200 μM of the indicated compounds and HEK293 cell lysate containing endogenous YAP protein for 18 h at 4 °C. The resin was washed, and bound YAP eluted and quantified by Western blotting (n = 2). […] Co-immunoprecipitated YAP or TEAD was quantified by Western blotting. […]
HeLa cells were transiently transfected with either pRK5-myc-TEAD1 (Addgene #33109) or pEGFP-C3-YAP1 (Addgene #17843). […] Following washing, immunoprecipitated proteins were eluted by boiling in sodium dodecyl sulfate (SDS) buffer (50 mM Tris pH 6.8, 20% glycerol, 2% SDS) and analyzed by Western blotting.

T1 sequence (P28347 whole entry, one chain of several): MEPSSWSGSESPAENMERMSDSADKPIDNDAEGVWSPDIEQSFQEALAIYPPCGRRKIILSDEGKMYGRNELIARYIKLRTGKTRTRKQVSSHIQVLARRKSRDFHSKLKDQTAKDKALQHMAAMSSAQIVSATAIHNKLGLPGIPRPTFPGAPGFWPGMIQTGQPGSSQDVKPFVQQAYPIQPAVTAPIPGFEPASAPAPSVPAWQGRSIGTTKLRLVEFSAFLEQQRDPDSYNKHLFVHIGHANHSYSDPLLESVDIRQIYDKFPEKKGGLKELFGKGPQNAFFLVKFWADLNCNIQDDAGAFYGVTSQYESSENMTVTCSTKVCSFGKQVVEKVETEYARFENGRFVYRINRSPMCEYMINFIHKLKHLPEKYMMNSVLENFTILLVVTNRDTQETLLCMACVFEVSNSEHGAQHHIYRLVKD

Cc1ccc2c(c1)c1c3n2CCN(CC(O)CN2CCN(C(=O)c4ccco4)CC2)C3CCC1 (centres unmarked) [CPD3]
binding of GFP-YAP to immunoprecipitated myc-TEAD1 (myc-Trap co-IP): inhibited binding of GFP–YAP | binding of myc-TEAD1 to affinity-purified GFP-YAP (GFP-Trap co-IP): inhibited binding of myc-TEAD1
